Assay results taken from PMC4890880 (ACS infectious diseases, 2016).
Where two headings read alike, the source gives them in different places.

Assays:
[1] = biological target: QuantiLum Recombinant Luciferase (Photinus pyralis, UniProt P08659); assay: Bioluminescence quantification of compound luciferase inhibition; conditions: for Emax: read-out: LucInhib max inhibition
[2] = test system: Plasmodium berghei (Pb-Luc) exoerythrocytic-stage parasites; assay: microbe, parasite or virus in culture; conditions: for inhibition at 10 µM: read-out: PbLuc max inhibition (%) @ 10 uM
[3] = test system: HepG2-A16-CD81EGFP cells; assay: cells; conditions: Homo sapiens; for IC50: HepG2, read-out: Tox IC50; for inhibition at 50 µM: HepG2, read-out: Tox max inhibition (%) @ 50 uM; for inhibition at 10 µM: HepG2, read-out: Tox max inhibition (%) @ 10 uM
[4] = test system: HepG2-A16-CD81EGFP cells; assay: cells; conditions: Homo sapiens, HepG2, read-out: % inhibition
[5] = test system: HepG2-A16-CD81EGFP cells; conditions: human, 50 uM
[6] = read-out: Inhibition% @ 50 uM rep1
[7] = read-out: Inhibition% @ 50 uM rep2
[8] = read-out: PbLuc IC50, dose response, unit inferred
[9] = read-out: PbLuc max inhibition (%) @ 50 uM
[10] = HepG2, read-out: HepG2 Tox% @ 50 uM rep1
[11] = read-out: PbLuc IC50, dose response, 1/3 dilutions, max conc. 10 or 50 uM, unit inferred
[12] = HepG2, read-out: HepG2 Tox% @ 50 uM rep2

Chain of QuantiLum Recombinant Luciferase (P08659 whole entry): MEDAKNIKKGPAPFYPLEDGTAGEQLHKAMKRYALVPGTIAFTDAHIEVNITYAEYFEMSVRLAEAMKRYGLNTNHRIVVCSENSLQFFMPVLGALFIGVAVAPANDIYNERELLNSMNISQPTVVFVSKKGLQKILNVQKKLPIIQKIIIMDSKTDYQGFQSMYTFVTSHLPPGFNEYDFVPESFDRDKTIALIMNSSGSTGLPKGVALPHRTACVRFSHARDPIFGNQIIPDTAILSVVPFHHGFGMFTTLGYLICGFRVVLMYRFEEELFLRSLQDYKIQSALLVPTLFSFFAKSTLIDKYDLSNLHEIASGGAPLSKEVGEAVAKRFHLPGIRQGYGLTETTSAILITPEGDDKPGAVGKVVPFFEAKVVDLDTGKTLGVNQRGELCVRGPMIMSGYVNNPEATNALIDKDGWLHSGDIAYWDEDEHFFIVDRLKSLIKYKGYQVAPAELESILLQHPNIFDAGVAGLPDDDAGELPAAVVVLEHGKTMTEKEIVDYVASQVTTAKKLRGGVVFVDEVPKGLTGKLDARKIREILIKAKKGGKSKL

SMILES	IC50 [1] [µM]	Emax [1] [%]	inhibition at 50 µM [2, 6] [%]	inhibition at 50 µM [2, 7] [%]	IC50 [2, 8] [µM]	inhibition at 50 µM [2, 9] [%]	cytotoxicity at 50 µM [3, 10] [%]	IC50 [3] [µM]	inhibition at 50 µM [3] [%]	IC50 [2, 11] [µM]	cytotoxicity at 50 µM [3, 12] [%]	inhibition at 10 µM [2] [%]	inhibition at 10 µM [3] [%]	inhibition at 50 µM [4] [%]	HepG2 Tox% @ 50 uM rep1 [5] [%]	HepG2 Tox% @ 50 uM rep2 [5] [%]
COc1ccc2c(c1OC)C(=O)N1c3ccccc3N=C(c3ccc(C)cc3)CC21 (stereo not shown) [MMV000917]	> 50	23	96	95	> 50	96	15	> 50	7							
CN1CCN(c2nc(Nc3ccc(O)cc3)nc3ccccc23)CC1 [MMV000986]	21.9	69	86	90		94	25	> 50	7	20.4						
COc1ccc(C)c2sc(N(Cc3cccnc3)C(=O)c3ccc(C#N)cc3)nc12 [MMV001241]	> 50	7	100	102	21.5	101	18	> 50	22							
O=C(NCc1ccco1)C1CCN(S(=O)(=O)c2ccc(Cl)cc2)CC1 [MMV006188]	> 50	22	102	102		106	22	> 50	28	0.707	28					
CCOC(=O)c1cnc2c(C)cccc2c1Nc1ccc(C(C)=O)cc1 [MMV006250]	> 50	27	88	91	28.2	84	18	> 50	0							
CCCCc1c(C)nc2c(OC)cccc2c1O [MMV006820]	> 20	41	99	102			-15	> 10		0.162	-12	110	15			
C=CCc1c(C)nc2ccccc2c1O [MMV006913]	> 20	38	100	97			-8	> 10		0.292	-5	108	15			
Cc1ccc(-c2cc3nc4c(c(O)n3n2)CCCC4)cc1 [MMV006937]	1.79	92	103	102			-11	> 10		0.114	-9	110	6.62			
CCOC(=O)c1cnc2ccc(CC)cc2c1O [MMV007116]	> 20	17	102	101			-3.48	> 10		0.0491	-3.29	110	10			
COc1ccccc1N1C(=N)SC(=Cc2ccc(OCc3ccccc3F)cc2)C1=O [MMV007199]	> 50	25	102	101		106	14	> 50	24	1.82						
CCOc1ccc(Nc2ccnc3cc(Cl)ccc23)cc1 [MMV007285]	> 50	47	88	91		100	16	> 50	14	1.65						
CCc1ccc(Nc2cc(C)nc3nc(C)nn23)cc1 [MMV007374]	> 50	30	92	91		101	11	> 50	9	4.8	15					
Cc1ccc(Cn2c(N3CCC(C(=O)NCc4cccs4)CC3)nc3ccccc32)cc1 [MMV007564]	> 50	27	104	105		106	97	> 50	69	2.09	99					
COc1ccc(C(C)=O)cc1N1C(=O)C2C(C1=O)C1(c3ccccc3)C(=O)C2(c2ccccc2)C(c2ccc(C)cc2)=C1c1ccc(C)cc1 (stereo not shown) [MMV007695]	> 50	35	101	104	24.8	60	-1.58	> 50	5.54		13					
CCCCOc1ccc(C(=O)Nc2cc(C)on2)cc1 [MMV007906]	> 20	34	98	98			-15	> 10		0.907	-10	97	7.53			
CCOc1ccc(CCNC(=O)c2cccs2)cc1OCC [MMV007978]	> 50	34	104	106		104	43	> 50	8	7.94	10					
CCOC(=O)C1=C(C)N=c2sc(=Cc3cc(Cl)ccc3O)c(=O)n2C1c1ccc(OC)cc1 (stereo not shown) [MMV665971]			103	104										99.7	100	
COc1ccc(-c2cc3c(nn2)-c2ccccc2C3=O)cc1 [MMV666026]			61	71										21.5	21	
COCCNC(=O)c1ccc(OC2CCN(Cc3ccc(F)c(F)c3)CC2)c(Cl)c1 [MMV666072]			100	102										90.7		97
CCOC(=O)C1=C(C)N=c2sc(=Cc3ccccc3O)c(=O)n2C1c1ccc(OC)c2ccccc12 (stereo not shown) [MMV666604]			53	33										-7.73	-8	
CCOc1ccc(N2C(N)=NC(N)=NC2(C)C)cc1 [MMV667486]			21	22										-13.4	-13	
CN(C)c1ccc(N2C(N)=NC(N)=NC2(C)C)cc1 [MMV667487]			71	82										-8.72	-9	
